Data reported in PubChem BioAssay AID383 (SGCOxCompounds, 2006).

Molecular target: Dual specificity protein kinase CLK3 (Homo sapiens) (UniProt P49761)
Test: CLK3 binders by thermal stabilization, biophysical, thermal shift, recombinant protein (AID 383)
Conditions: at 10 µM, protein 1.5 µM, buffer 10 mM HEPES, pH 7.5, NaCl 150 mM, with 50 µM L-Arg/L-Glu (1:1), stronger effect = higher value

Chain of Dual specificity protein kinase CLK3 (Homo sapiens) (P49761 whole entry, looked up): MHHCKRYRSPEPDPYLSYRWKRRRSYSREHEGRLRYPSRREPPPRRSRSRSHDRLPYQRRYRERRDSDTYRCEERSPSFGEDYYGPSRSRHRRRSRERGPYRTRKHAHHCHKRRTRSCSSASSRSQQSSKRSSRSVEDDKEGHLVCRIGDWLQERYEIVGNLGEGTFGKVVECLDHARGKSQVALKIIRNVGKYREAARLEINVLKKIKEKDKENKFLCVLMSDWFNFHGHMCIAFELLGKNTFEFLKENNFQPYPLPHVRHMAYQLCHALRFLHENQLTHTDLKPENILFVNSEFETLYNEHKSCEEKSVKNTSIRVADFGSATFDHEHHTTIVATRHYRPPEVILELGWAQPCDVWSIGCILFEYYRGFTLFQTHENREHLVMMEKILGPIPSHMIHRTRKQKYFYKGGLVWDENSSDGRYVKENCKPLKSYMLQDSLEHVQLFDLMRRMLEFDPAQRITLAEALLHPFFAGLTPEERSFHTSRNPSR

Structure (SMILES) | Tm shift [Celsius]
OCC(O)CCO/N=C1/C(c2c(O)[nH]c3ccccc23)=Nc2ccccc21 (stereo not drawn) | 4
O=C(c1ccc(Nc2nccc(-c3cc4ccccc4s3)n2)cc1)N1CCC(N2CCCC2)CC1 | 6.3
Cc1cc(Nc2nc(-c3ccccc3)nc3ccccc23)n[nH]1 | 4.1
O=Nc1c(-c2c(O)[nH]c3ccc(I)cc23)[nH]c2ccccc12 | 4.5
N#C/C(=C1\Nc2ccccc2S1)c1ccnc(NCCc2cccnc2)n1 | 4.9
O=C1NC(=O)C(c2c[nH]c3ccccc23)=C1c1c[nH]c2ccccc12 | 3.2
O=Nc1c(-c2c(O)[nH]c3ccc(S(O)(O)O)cc23)[nH]c2ccccc12 | 4.7
Cc1[nH]c(/C=C2\C(=O)Nc3ccc(S(=O)(=O)N(C)c4cccc(Cl)c4)cc32)c(C)c1C(=O)N1CCN(C)CC1 | 3.7

Same assay, conditions: at 10 µM, protein 1.7 µM, buffer 10 mM HEPES, pH 7.5, NaCl 150 mM, with 50 µM L-Arg/L-Glu (1:1), stronger effect = higher value

Structure (SMILES) | Tm shift [Celsius]
Nc1nc(Nc2cccc(Cl)c2)sc1C(=O)c1ccc(F)cc1 | 3.4
COc1ccc(Nc2nc(N)c(C(=O)c3ccc(OC)cc3)s2)cc1 | 4.3
Nc1nc(Nc2ccc(F)cc2)sc1C(=O)c1ccccc1 | 3.2
COc1ccc(Nc2nc(N)c(C(=O)c3ccc(Cl)cc3)s2)cc1 | 3.7

Same assay, conditions: at 10 µM, protein 1.8 µM, buffer 10 mM HEPES, pH 7.5, NaCl 150 mM, with 50 µM L-Arg/L-Glu (1:1), stronger effect = higher value

Structure (SMILES) | Tm shift [Celsius]
Cn1cc(/C=C2\C(=O)Nc3ccc(S(N)(=O)=O)cc32)c2ccccc21 | 3.2
O=Nc1c(-c2c(O)[nH]c3ccccc23)[nH]c2ccccc12 | 4.6
CC1N=C2SC=CN2C(=O)C1CCN1CCC(=C(c2ccccc2)c2ccc(F)cc2)CC1 (stereo not drawn) | 3.8
O=c1cc(-c2ccc(O)cc2)oc2cc(O)cc(O)c12 | 3.1
CN(C)CCCn1cc(C2=C(c3c[nH]c4ccccc34)C(=O)NC2=O)c2ccccc21 | 3.5
COc1cc(/C=C/C(=O)CC(=O)/C=C/c2ccc(O)c(OC)c2)ccc1O | 5.3
NC1=N/C(=C2/CCNC(=O)c3[nH]c(Br)cc32)C(=O)N1 | 7.2
CN(C)S(O)(O)c1ccc2c(c1)/C(=C/c1cc3c([nH]1)CCCC3)C(=O)N2 | 4.1
Cc1c2ccncc2c(C)c2c1[nH]c1ccccc12 | 4.2
Nc1ncnc2c1c(I)cn2[C@@H]1O[C@H](CO)C(O)C1O (stereo partly drawn) | 7.5
CC(C)n1cnc2c(Nc3cccc(Cl)c3)nc(NCCO)nc21 | 4.6
NC(=O)c1ccc(-c2nc(-c3ccc4c(c3)OCCO4)c(-c3ccccn3)[nH]2)cc1 | 4.8

Same assay, conditions: at 10 µM, protein 2 µM, buffer 10 mM HEPES, NaCl 150 mM, with 50 mM Arg/Glu, stronger effect = higher value

Structure (SMILES) | Tm shift [Celsius]
CCC(CO)Nc1ccc2ncc(-c3ccc(O)cc3)n2n1 (stereo not drawn) | 4.43
O=c1c(O)c(-c2ccc(O)c(O)c2)oc2cc(O)cc(O)c12 | 4.2
CC(C)[C@@H](CO)Nc1ccc2ncc(-c3ccc(C#N)cc3)n2n1 | 4.58
NC1=N/C(=C2\CCNC(=O)c3[nH]ccc32)C(=O)N1 | 4.35
CC(=O)Nc1cccc(-c2cnc3ccc(N[C@H](CO)C(C)C)nn23)c1 | 4.32
CC(C)C(CO)Nc1nc(Nc2cccc(Cl)c2)c2ncn(C(C)C)c2n1 (stereo not drawn) | 3.88
NC1=N/C(=C2/CCNC(=O)c3[nH]c(Br)cc32)C(=O)N1 | 8.87
Nc1nc(Nc2ccc(S(N)(=O)=O)cc2)nn1C(=S)Nc1c(F)cccc1F | 15.1
Nc1ncnc2c1c(I)cn2[C@@H]1O[C@H](CO)C(O)C1O (stereo partly drawn) | 7.25
CC(C)n1cnc2c(Nc3cccc(Cl)c3)nc(NCCO)nc21 | 3.76
N=C(N)SCCCn1cc(C2=C(c3c[nH]c4ccccc34)C(=O)NC2=O)c2ccccc21 | 3.37
CC(=O)c1cccc(-c2cnc3ccc(N[C@H](CO)C(C)C)nn23)c1 | 3.77
CCC(CO)Nc1ccc2ncc(-c3ccc(C(=O)O)cc3)n2n1 (stereo not drawn) | 3.99

Same assay, conditions: at 10 µM, protein 2 µM, buffer 10 mM HEPES, pH 7.5, NaCl 150 mM, stronger effect = higher value

Structure (SMILES) | Tm shift [Celsius]
Clc1cccc(Nc2ccn3ncc(-c4ccc5c(c4)OCO5)c3n2)c1 | 6.07
COc1cccc(-c2cnn3ccc(Nc4cccc(Cl)c4)nc23)c1 | 4.61
CC(C)[C@@H](CO)Nc1ccc2ncc(-c3cccc(O)c3)n2n1 | 4.02
N#Cc1ccc(-c2cnc3ccc(NC4CCOCC4)nn23)cc1 | 3.76
CC(C)[C@@H](CO)Nc1ccc2ncc(-c3cccc(OC(F)(F)F)c3)n2n1 | 4.02
CCC(CO)Nc1ccc2ncc(-c3ccc(OC)nc3)n2n1 (stereo not drawn) | 4.48
CCC(CO)Nc1ccc2ncc(-c3cccc(OC(F)(F)F)c3)n2n1 (stereo not drawn) | 3.66
Nc1ccc(-c2cnn3ccc(Nc4cccc(Cl)c4)nc23)cc1 | 3.58
CCC(CO)Nc1ccc2ncc(-c3cccc(C(C)=O)c3)n2n1 (stereo not drawn) | 3.42
CCC(CO)Nc1ccc2ncc(-c3ccc(F)c(Cl)c3)n2n1 (stereo not drawn) | 3.6

Same assay, conditions: at 10 µM, protein 2 µM, buffer 50 mM HEPES, pH 7.5, NaCl 500 mM, stronger effect = higher value

Structure (SMILES) | Tm shift [Celsius]
O=c1c(O)c(-c2ccc(O)c(O)c2)oc2cc(O)cc(O)c12 | 3.12
O=C1C(=O)C(c2cc(O)c(O)c(O)c2)Oc2cc(O)cc(O)c21 (stereo not drawn) | 3.08
O=c1cc(-c2ccc(O)c(O)c2)oc2cc(O)cc(O)c12 | 4.28
O=c1c(O)c(-c2cc(O)c(O)c(O)c2)oc2cc(O)cc(O)c12 | 3.25
CCN1/C(=C/C(C)=O)Sc2ccc(OC)cc21 | 3.16
NCCCn1cc(C2=C(c3c[nH]c4ccccc34)C(=O)NC2=O)c2ccccc21 | 3.18
